Experimental data reported in patent US9029368B2, “3,7-disubstituted octahydro-2H-pyrido[4,3-E][1,3]oxazin-2-one antibiotics” (Actelion Pharmaceuticals Ltd., priority 2011, dated 2015).
Converted amounts (≈) assume the structure as drawn.

system: S. aureus 29213; assay: Bacterial growth minimal inhibitory concentrations (microdilution in cation-adjusted Mueller-Hinton Broth, CLSI M7-A7); type: cell-based; conditions: Staphylococcus aureus, 29213, microdilution method
Procedure: Bacterial Growth Minimal Inhibitory Concentrations: Minimal inhibitory concentrations (MICs; mg/l) were determined in cation-adjusted Mueller-Hinton Broth by a microdilution method following the description given in “Methods for Dilution Antimicrobial Susceptibility Tests for Bacteria that Grow Aerobically”, Approved standard, 7th ed., Clinical and Laboratory Standards Institute (CLSI) Document M7-A7, Wayne, Pa., USA, 2006. All Example compounds were tested against several Gram positive and Gram negative bacteria.

SMILES | MIC [µg/mL]
COc1ccc2ncc(F)c([C@@H](O)CN3CC[C@@H]4CN(c5ccc6c(c5)OCCO6)C(=O)O[C@H]4C3)c2n1 (mixture of isomers) [Example 13, (4aR*,8aR*)-3-(2,3-dihydro-benzo[1,4]dioxin-6-yl)-7-[(R)-2-(3-fluoro-6-methoxy-[1,5]naphthyridin-4-yl)-2-hydroxy-ethyl]-octahydro-pyrido[4,3-e][1,3]oxazin-2-one] | 0.063
COc1ccc2nccc(C(O)CN3CC[C@@H]4CN(c5ccc6c(c5)OCCO6)C(=O)O[C@H]4C3)c2n1 (mixture of isomers) [Example 3, (4aR*,8aR*)-3-(2,3-dihydro-benzo[1,4]dioxin-6-yl)-7-[(2RS)-2-hydroxy-2-(6-methoxy-[1,5]naphthyridin-4-yl)-ethyl]-octahydro-pyrido[4,3-e][1,3]oxazin-2-one] | 0.125 (≈ 0.254 µM)
COc1ccc2nccc(CCN3CC[C@@H]4CN(c5ccc6c(c5)OCCO6)C(=O)O[C@H]4C3)c2n1 (racemic) [Example 4, rac-(4aR*,8aR*)-3-(2,3-dihydro-benzo[1,4]dioxin-6-yl)-7-[2-(6-methoxy-[1,5]naphthyridin-4-yl)-ethyl]-octahydro-pyrido[4,3-e][1,3]oxazin-2-one] | 0.063 (≈ 0.132 µM)
COc1ccc2ncc(F)c(CCN3CC[C@@H]4CN(c5ccc6c(c5)NC(=O)CO6)C(=O)O[C@H]4C3)c2n1 (racemic) [Example 5, rac-(4aR*,8aR*)-7-[2-(3-fluoro-6-methoxy-[1,5]naphthyridin-4-yl)-ethyl]3-(3-oxo-3,4-dihydro-2H-benzo[1,4]oxazin-6-yl)-octahydro-pyrido[4,3-e][1,3]oxazin-2-one] | ≤ 0.031
COc1ccc2ncc(F)c(C(O)CN3CC[C@@H]4CN(c5ccc6c(c5)OCCO6)C(=O)O[C@H]4C3)c2n1 (mixture of isomers) [Example 6, (4aR*,8aR*)-3-(2,3-dihydro-benzo[1,4]dioxin-6-yl)-7-[(2RS)-2-(3-fluoro-6-methoxy-[1,5]naphthyridin-4-yl)-2-hydroxy-ethyl]-octahydro-pyrido[4,3-e][1,3]oxazin-2-one] | 0.063 (≈ 0.123 µM)
COc1ccc2ncc(F)c(CCN3CC[C@@H]4CN(c5ccc6c(c5)NC(=O)CS6)C(=O)O[C@H]4C3)c2n1 (racemic) [Example 7, rac-(4aR*,8aR*)-7-[2-(3-fluoro-6-methoxy-[1,5]naphthyridin-4-yl)-ethyl]-3-(3-oxo-3,4-dihydro-2H-benzo[1,4]thiazin-6-yl)-octahydro-pyrido[4,3-e][1,3]oxazin-2-one] | ≤ 0.031
COc1ccc2ccc(=O)n(CCN3CC[C@@H]4CN(c5ccc6c(c5)OCCO6)C(=O)O[C@H]4C3)c2c1 (racemic) [Example 8, rac-(4aR*,8aR*)-3-(2,3-dihydro-benzo[1,4]dioxin-6-yl)-7-[2-(7-methoxy-2-oxo-2H-quinolin-1-yl)-ethyl]-octahydro-pyrido[4,3-e][1,3]oxazin-2-one] | ≤ 0.031
COc1ccc2ncc(=O)n(CCN3CC[C@@H]4CN(c5ccc6c(c5)OCCO6)C(=O)O[C@H]4C3)c2c1 (racemic) [Example 9, rac-(4aR*,8aR*)-3-(2,3-dihydro-benzo[1,4]dioxin-6-yl)-7-[2-(7-methoxy-2-oxo-2H-quinoxalin-1-yl)-ethyl]-octahydro-pyrido[4,3-e][1,3]oxazin-2-one] | ≤ 0.031
COc1ccc2ccc(=O)n(CCN3CC[C@@H]4CN(c5ccc6c(c5)OCCO6)C(=O)O[C@H]4C3)c2n1 (racemic) [Example 10, rac-(4aR*,8aR*)-3-(2,3-dihydro-benzo[1,4]dioxin-6-yl)-7-[2-(7-methoxy-2-oxo-2H-[1,8]naphthyridin-1-yl)-ethyl]-octahydro-pyrido[4,3-e][1,3]oxazin-2-one] | ≤ 0.031
COc1ccc2ncc(=O)n(CCN3CC[C@@H]4CN(c5ccc6c(c5)OCCO6)C(=O)O[C@H]4C3)c2n1 (racemic) [Example 11, rac-(4aR*,8aR*)-3-(2,3-dihydro-benzo[1,4]dioxin-6-yl)-7-[2-(6-methoxy-3-oxo-3H-pyrido[2,3-b]pyrazin-4-yl)-ethyl]-octahydro-pyrido[4,3-e][1,3]oxazin-2-one] | ≤ 0.031
COc1cnc2ccc(=O)n(CCN3CC[C@@H]4CN(c5ccc6c(c5)OCCO6)C(=O)O[C@H]4C3)c2n1 (racemic) [Example 12, rac-(4aR*,8aR*)-3-(2,3-dihydro-benzo[1,4]dioxin-6-yl)-7-[2-(3-methoxy-6-oxo-6H-pyrido[2,3-b]pyrazin-5-yl)-ethyl]-octahydro-pyrido[4,3-e][1,3]oxazin-2-one] | ≤ 0.031
COc1ccc2ccc(F)c(C(O)CN3CC[C@@H]4CN(c5ccc6c(c5)OCCO6)C(=O)O[C@H]4C3)c2n1 (mixture of isomers) [Example 16, (4aR*,8aR*)-3-(2,3-dihydro-benzo[1,4]dioxin-6-yl)-7-[(2RS)-2-(7-fluoro-2-methoxy-quinolin-8-yl)-2-hydroxy-ethyl]-octahydro-pyrido[4,3-e][1,3]oxazin-2-one] | 0.125 (≈ 0.245 µM)
COc1cnc2ccc(F)c(C(O)CN3CC[C@@H]4CN(c5ccc6c(c5)OCCO6)C(=O)O[C@H]4C3)c2n1 (mixture of isomers) [Example 17, (4aR*,8aR*)-3-(2,3-dihydro-benzo[1,4]dioxin-6-yl)-7-[(2RS)-2-(6-fluoro-3-methoxy-quinoxalin-5-yl)-2-hydroxy-ethyl]-octahydro-pyrido[4,3-e][1,3]oxazin-2-one] | 0.063 (≈ 0.123 µM)
COc1cnc2cccc(C(O)CN3CC[C@@H]4CN(c5ccc6c(c5)OCCO6)C(=O)O[C@H]4C3)c2n1 (mixture of isomers) [Example 18, (4aR*,8aR*)-3-(2,3-dihydro-benzo[1,4]dioxin-6-yl)-7-[(2RS)-2-hydroxy-2-(3-methoxy-quinoxalin-5-yl)-ethyl]-octahydro-pyrido[4,3-e][1,3]oxazin-2-one] | 0.063 (≈ 0.128 µM)
COc1ccc2ncc(F)c(CCN3CC[C@@H]4CN(c5ccc6c(n5)NC(=O)CO6)C(=O)O[C@H]4C3)c2n1 (racemic) [Example 19, rac-(4aR*,8aR*)-7-[2-(3-fluoro-6-methoxy-[1,5]naphthyridin-4-yl)-ethyl]3-(3-oxo-3,4-dihydro-2H-pyrido[3,2-b][1,4]oxazin-6-yl)-octahydro-pyrido[4,3-e][1,3]oxazin-2-one] | ≤ 0.031
COc1ccc2ncc(F)c(CCN3CC[C@@H]4CN(c5cnc6c(c5)OCCO6)C(=O)O[C@H]4C3)c2n1 (racemic) [Example 22, rac-(4aR*,8aR*)-3-(2,3-dihydro-[1,4]dioxino[2,3-b]pyridin-7-yl)-7-[2-(3-fluoro-6-methoxy-[1,5]naphthyridin-4-yl)-ethyl]-octahydro-pyrido[4,3-e][1,3]oxazin-2-one] | ≤ 0.031
COc1ccc2ncc(F)c(CCN3CC[C@@H]4CN(c5cc6c(nn5)OCCO6)C(=O)O[C@H]4C3)c2n1 (racemic) [Example 23, rac-(4aR*,8aR*)-3-(6,7-dihydro-[1,4]dioxino[2,3-c]pyridazin-3-yl)-7-[2-(3-fluoro-6-methoxy-[1,5]naphthyridin-4-yl)-ethyl]-octahydro-pyrido[4,3-e][1,3]oxazin-2-one] | ≤ 0.031
COc1ccc2ncc(F)c(CCN3CC[C@@H]4CN(c5cc6c(cn5)OCCO6)C(=O)O[C@H]4C3)c2n1 (racemic) [Example 24, rac-(4aR*,8aR*)-3-(2,3-dihydro-[1,4]dioxino[2,3-c]pyridin-7-yl)-7-[2-(3-fluoro-6-methoxy-[1,5]naphthyridin-4-yl)-ethyl]-octahydro-pyrido[4,3-e][1,3]oxazin-2-one] | ≤ 0.031
COc1ccc2ccc(=O)n(CCN3CC[C@@H]4CN(c5ccc6c(n5)NC(=O)CO6)C(=O)O[C@H]4C3)c2n1 (racemic) [Example 25, rac-(4aR*,8aR*)-7-[2-(7-methoxy-2-oxo-2H-[1,8]naphthyridin-1-yl)-ethyl]-3-(3-oxo-3,4-dihydro-2H-pyrido[3,2-b][1,4]oxazin-6-yl)-octahydro-pyrido[4,3-e][1,3]oxazin-2-one] | ≤ 0.031
COc1ccc2ccc(=O)n(CCN3CC[C@@H]4CN(c5ccc6c(n5)NC(=O)CS6)C(=O)O[C@H]4C3)c2n1 (racemic) [Example 26, rac-(4aR*,8aR*)-7-[2-(7-methoxy-2-oxo-2H-[1,8]naphthyridin-1-yl)-ethyl]-3-(3-oxo-3,4-dihydro-2H-pyrido[3,2-b][1,4]thiazin-6-yl)-octahydro-pyrido[4,3-e][1,3]oxazin-2-one] | ≤ 0.031
COc1ccc2ncc(F)c(CCN3CC[C@@H]4CN(c5cc6c(nn5)OCCS6)C(=O)O[C@H]4C3)c2n1 (racemic) [Example 27, rac-(4aR*,8aR*)-3-(6,7-dihydro-8-oxa-5-thia-1,2-diaza-naphthalen-3-yl)-7-[2-(3-fluoro-6-methoxy-[1,5]naphthyridin-4-yl)-ethyl]-octahydro-pyrido[4,3-e][1,3]oxazin-2-one] | ≤ 0.031
COc1ccc2ncc(=O)n(CCN3CC[C@@H]4CN(c5cc6c(nn5)OCCS6)C(=O)O[C@H]4C3)c2n1 (racemic) [Example 28, rac-(4aR*,8aR*)-3-(6,7-dihydro-8-oxa-5-thia-1,2-diaza-naphthalen-3-yl)-7-[2-(6-methoxy-3-oxo-3H-pyrido[2,3-b]pyrazin-4-yl)-ethyl]-octahydro-pyrido[4,3-e][1,3]oxazin-2-one] | ≤ 0.031
O=C1O[C@H]2CN(CC3Cn4c(=O)ccc5ncc(F)c3c54)CC[C@@H]2CN1c1ccc2c(c1)OCCO2 (mixture of isomers) [Example 30, (RS)-4-[(4aR*,8aR*)-3-(2,3-dihydro-benzo[1,4]dioxin-6-yl)-2-oxo-octahydro-pyrido[4,3-e][1,3]oxazin-7-ylmethyl]-3-fluoro-4,5-dihydro-pyrrolo[3,2,1-de][1,5]naphthyridin-7-one] | 0.5 (≈ 1.02 µM)
COc1ccc2ccc(=O)n(CCN3CC[C@@H]4CN(c5ccc6c(c5)NC(=O)CS6)C(=O)O[C@H]4C3)c2n1 (racemic) [Example 31, rac-(4aR*,8aR*)-7-(2-(7-methoxy-2-oxo-1,8-naphthyridin-1(2H)-yl)ethyl)-3-(3-oxo-3,4-dihydro-2H-benzo[b][1,4]thiazin-6-yl)octahydro-2H-pyrido[4,3-e][1,3]oxazin-2-one] | ≤ 0.031
